From patent US10143740B2, “Inactivating pathogens with oxidizing agents for vaccine production” (priority 2005, dated 2018)
Like-named read-outs stand apart in the source and are kept apart here.

How the values were obtained:
[1] = tested on: lymphocytic choriomeningitis virus (LCMV)
[2] = mouse, in vivo; cited from earlier work
[3] = rats, inhalation; cited from earlier work
[4] = in vitro and in vivo; cited from earlier work

OO [H2O2, hydrogen peroxide]
viral titer after treatment (West Nile virus (WNV)): reduced to below the limit of detection
viral titer after treatment (yellow fever virus (YFV)): reduced to below the limit of detection
H2O2 concentration at which infectivity is eliminated [1]: < 0.1%
viral titer after treatment [1]: reduced to below the limit of detection
viral titer after treatment (monkeypox virus (MPV)): reduced to below the limit of detection
H2O2 concentration after which no infectious virus could be detected (vaccinia virus): ≤ 0.03%
viral titer after treatment (vaccinia virus): reduced to below the limit of detection

O=C1CCO1 [betapropiolactone]
carcinogenicity [2]: produce squamous cell carcinomas, lymphomas and hepatomas

C=O [formaldehyde]
carcinogenicity [3]: induces squamous-cell carcinoma of the nasal cavity
genotoxicity [4]: genotoxic in vitro and in vivo
